Source: paper PMC6054074, “The medicinal thiosulfinates from garlic and Petiveria are not radical-trapping antioxidants in liposomes and cells, but lipophilic analogs are” (Chemical Science, 2015)
Where two headings read alike, the source gives them in different places.

Target: T1, papain (Carica papaya, UniProt P00784)
T1 sequence (P00784 134-345): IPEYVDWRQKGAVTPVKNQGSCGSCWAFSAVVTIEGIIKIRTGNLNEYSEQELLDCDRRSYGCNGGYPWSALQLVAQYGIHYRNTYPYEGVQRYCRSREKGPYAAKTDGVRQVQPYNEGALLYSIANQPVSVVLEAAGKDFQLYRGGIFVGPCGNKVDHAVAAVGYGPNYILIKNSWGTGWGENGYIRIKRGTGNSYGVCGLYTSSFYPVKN
Experiment: chromogenic protease assay (BAPNA, […] nm) after […] min preincubation of DTT-reduced papain with compound
Format: biochemical

| IC50 (read-out: IC50) [nM] | SMILES | IC50 [nM] |
| --- | --- | --- |
| – | C=CCS[S+]([O-])CC=C (stereo not drawn) [compound 1, allicin] | 1200 ± 200 |
| 1000 ± 100 | CCCCCCc1ccc(CS[S+]([O-])Cc2ccc(CCCCCC)cc2)cc1 (stereo not drawn) [compound 4, hexylated petivericin] | – |
| 1100 ± 100 | [O-][S+](Cc1ccccc1)SCc1ccccc1 (stereo not drawn) [compound 2, petivericin] | – |
